This note sets out measurements from patent US20250312352A1, “GLP-1R MODULATING COMPOUNDS” (Gilead Sciences, Inc., priority 2021, published 2025).

pEC50: −log10 of the molar value.

The target in the experiment is T1, GLP-1R (Homo sapiens, UniProt P43220).
T1 construct: host or cells: CHO cells
T1 sequence (P43220 24-463): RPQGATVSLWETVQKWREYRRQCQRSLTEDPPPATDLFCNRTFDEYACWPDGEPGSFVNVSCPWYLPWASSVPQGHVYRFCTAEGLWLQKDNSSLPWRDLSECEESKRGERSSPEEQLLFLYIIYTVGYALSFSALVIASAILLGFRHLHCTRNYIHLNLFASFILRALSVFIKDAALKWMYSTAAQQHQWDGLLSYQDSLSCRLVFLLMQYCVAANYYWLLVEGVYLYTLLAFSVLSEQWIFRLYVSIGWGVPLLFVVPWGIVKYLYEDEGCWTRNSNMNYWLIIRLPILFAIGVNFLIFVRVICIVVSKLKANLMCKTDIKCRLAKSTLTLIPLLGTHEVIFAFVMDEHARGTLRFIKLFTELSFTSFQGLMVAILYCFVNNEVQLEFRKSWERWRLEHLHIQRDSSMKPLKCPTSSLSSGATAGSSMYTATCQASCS
As to the kind of experiment: GLP-1R activation cAMP assay (Assay 1 or Assay 2). Type of experiment: cell-based. To be noted: cAMP increase in CHO cells stably expressing GLP-1R; compounds run on one of the two cAMP assays. The method in brief:
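EC50 values come from a sigmoidal fit of HTRF-detected cAMP rise versus log agonist concentration. GLP-1R-expressing CHO cells, equilibrated 1 h at 37 °C in HBSS with HEPES and BSA, received a 10-point compound dose series for 30 min before detection.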
Regarding `O=C(O)c1ccc2nc(Cc3cc(F)c(-c4cccc(OCc5ncc(C(F)F)s5)n4)cc3F)n(C[C@@H]3CCO3)c2c1` [Example 58, (S)-2-(4-(6-((5-(difluoromethyl)thiazol-2-yl)methoxy)pyridin-2-yl)-2,5-difluorobenzyl)-1-(oxetan-2-ylmethyl)-1H-benzo[d]imidazole-6-carboxylic acid], the pEC50 (as a rule, the negative decadic logarithm of the EC50, by convention in mol/L) was 9.85.

In turn, `O=C(O)c1ccc2nc(Cc3cc(F)c(-c4cccc(OCc5ncc(C6CC6)o5)n4)cc3F)n(C[C@@H]3CCO3)c2c1` [Example 63, (S)-2-(4-(6-((5-cyclopropyloxazol-2-yl)methoxy)pyridin-2-yl)-2,5-difluorobenzyl)-1-(oxetan-2-ylmethyl)-1H-benzo[d]imidazole-6-carboxylic acid] showed a negative-log EC50 (pEC50) of 9.05.

The compound `COc1nnc(COc2cccc(-c3cc(F)c(Cc4nc5ccc(C(=O)O)cc5n4[C@@H]4COCC4(C)C)cc3F)n2)s1` [Example 342, (S)-2-(2,5-difluoro-4-(6-((5-methoxy-1,3,4-thiadiazol-2-yl)methoxy)pyridin-2-yl)benzyl)-1-(4,4-dimethyltetrahydrofuran-3-yl)-1H-benzo[d]imidazole-6-carboxylic acid] had a pEC50 of 10.41.

The compound `O=C(O)c1cc(F)c2nc(Cc3c(F)cc(-c4ccc(F)c(OCc5ncc(C(F)(F)F)s5)n4)c(F)c3F)n(C[C@@H]3CCO3)c2c1` [Example 447, (S)-4-fluoro-1-(oxetan-2-ylmethyl)-2-(2,3,6-trifluoro-4-(5-fluoro-6-((5-(trifluoromethyl)thiazol-2-yl)methoxy)pyridin-2-yl)benzyl)-1H-benzo[d]imidazole-6-carboxylic acid] had a pEC50 of 10.70.

As for `O=C(O)c1ccc2nc(Cc3cc(F)c(-c4cccc(OCc5ncc(C#CC6CC(F)(F)C6)s5)n4)cc3F)n(C[C@@H]3CCO3)c2c1` [Example 336, (S)-2-(4-(6-((5-((3,3-difluorocyclobutyl)ethynyl)thiazol-2-yl)methoxy)pyridin-2-yl)-2,5-difluorobenzyl)-1-(oxetan-2-ylmethyl)-1H-benzo[d]imidazole-6-carboxylic acid], the negative-log EC50 (pEC50) was 9.58.

In turn, `Cn1cc(C#Cc2ccc(COc3cccc(-c4cc(F)c(Cc5nc6ccc(C(=O)O)cc6n5C[C@@H]5CCO5)cc4F)n3)nc2Cl)cn1` [Example 358, (S)-2-(4-(6-((6-chloro-5-((1-methyl-1H-pyrazol-4-yl)ethynyl)pyridin-2-yl)methoxy)pyridin-2-yl)-2,5-difluorobenzyl)-1-(oxetan-2-ylmethyl)-1H-benzo[d]imidazole-6-carboxylic acid] showed a negative-log EC50 (pEC50) of 9.61.

In turn, `Cn1cc(C#Cc2cnc(COc3nc(-c4cc(F)c(Cc5nc6c(F)cc(C(=O)O)cc6n5C[C@@H]5CCO5)cc4F)ccc3F)c(F)c2)cn1` [Example 296, (S)-2-(2,5-difluoro-4-(5-fluoro-6-((3-fluoro-5-((1-methyl-1H-pyrazol-4-yl)ethynyl)pyridin-2-yl)methoxy)pyridin-2-yl)benzyl)-4-fluoro-1-(oxetan-2-ylmethyl)-1H-benzo[d]imidazole-6-carboxylic acid] gave a pEC50 of 10.44.

Take `Cc1cc(C#Cc2cnn(C)c2)cnc1COc1cccc(-c2cc(F)c(Cc3nc4ccc(C(=O)O)cc4n3C[C@@H]3CCO3)cc2F)n1` [Example 289, (S)-2-(2,5-difluoro-4-(6-((3-methyl-5-((1-methyl-1H-pyrazol-4-yl)ethynyl)pyridin-2-yl)methoxy)pyridin-2-yl)benzyl)-1-(oxetan-2-ylmethyl)-1H-benzo[d]imidazole-6-carboxylic acid]: the pEC50 was 9.58.

On to `O=C(O)c1ccc2nc(Cc3cc(F)c(-c4cccc(OCc5ccc(-n6cc(C7CC7)nn6)nc5)n4)cc3F)n(C[C@@H]3CCO3)c2c1` [Example 212, (S)-2-(4-(6-((6-(4-cyclopropyl-1H-1,2,3-triazol-1-yl)pyridin-3-yl)methoxy)pyridin-2-yl)-2,5-difluorobenzyl)-1-(oxetan-2-ylmethyl)-1H-benzo[d]imidazole-6-carboxylic acid], for which the pEC50 was 10.00.

`Cc1nnc(COc2cccc(-c3cc(F)c(Cc4nc5ccc(C(=O)O)cc5n4[C@@H]4COCC4(C)C)cc3F)n2)s1` [Example 290, (S)-2-(2,5-difluoro-4-(6-((5-methyl-1,3,4-thiadiazol-2-yl)methoxy)pyridin-2-yl)benzyl)-1-(4,4-dimethyltetrahydrofuran-3-yl)-1H-benzo[d]imidazole-6-carboxylic acid] showed a pEC50 of 9.81.

For the compound `O=C(O)c1cc(F)c2nc(Cc3cc(F)c(-c4cccc(OCc5ncc(C#CC6(C(F)F)CC6)cc5Cl)n4)cc3F)n(C[C@@H]3CCO3)c2c1` [Example 381, (S)-2-(4-(6-((3-chloro-5-((1-(difluoromethyl)cyclopropyl)ethynyl)pyridin-2-yl)methoxy)pyridin-2-yl)-2,5-difluorobenzyl)-4-fluoro-1-(oxetan-2-ylmethyl)-1H-benzo[d]imidazole-6-carboxylic acid], the pEC50 was 9.52.

For the compound `O=C(O)c1ccc2nc(Cc3cc(F)c(-c4cccc(OCc5ccc(-c6cn(C7CC7)nn6)cc5F)n4)cc3F)n(C[C@@H]3CCO3)c2c1` [Example 214, (S)-2-(4-(6-((4-(1-cyclopropyl-1H-1,2,3-triazol-4-yl)-2-fluorobenzyl)oxy)pyridin-2-yl)-2,5-difluorobenzyl)-1-(oxetan-2-ylmethyl)-1H-benzo[d]imidazole-6-carboxylic acid], the pEC50 is 10.10.

With `CC1(C)COC[C@@H]1n1c(Cc2cc(F)c(-c3cccc(OCc4ncc(C#N)s4)n3)cc2F)nc2ccc(C(=O)O)cc21` [Example 182, (R)-2-(4-(6-((5-cyanothiazol-2-yl)methoxy)pyridin-2-yl)-2,5-difluorobenzyl)-1-(4,4-dimethyltetrahydrofuran-3-yl)-1H-benzo[d]imidazole-6-carboxylic acid], the pEC50 is 9.72.

In turn, `COc1nnc(COc2nc(-c3cc(Cl)c(Cc4nc5c(F)cc(C(=O)O)cc5n4C[C@@H]4CCO4)cc3C)ccc2F)s1` [Example 443, (S)-2-(2-chloro-4-(5-fluoro-6-((5-methoxy-1,3,4-thiadiazol-2-yl)methoxy)pyridin-2-yl)-5-methylbenzyl)-4-fluoro-1-(oxetan-2-ylmethyl)-1H-benzo[d]imidazole-6-carboxylic acid] had a pEC50 of 8.46.

For `O=C(O)c1ccc2nc(Cc3cc(F)c(-c4cccc(OCc5ccc(-n6cnc(C7CC7)n6)nc5)n4)cc3F)n(C[C@@H]3CCO3)c2c1` [Example 211, 2-[[4-[6-[[6-(3-cyclopropyl-1,2,4-triazol-1-yl)-3-pyridyl]methoxy]-2-pyridyl]-2,5-difluoro-phenyl]methyl]-3-[[(2S)-oxetan-2-yl]methyl]benzimidazole-5-carboxylic acid], the pEC50 was 9.29.

The compound `COc1cc(C(=O)NC2(C#N)CC2)ncc1COc1cccc(-c2cc(F)c(Cc3nc4ccc(C(=O)O)cc4n3C[C@@H]3CCO3)cc2F)n1` [Example 41, (S)-2-(4-(6-((6-((1-cyanocyclopropyl)carbamoyl)-4-methoxypyridin-3-yl)methoxy)pyridin-2-yl)-2,5-difluorobenzyl)-1-(oxetan-2-ylmethyl)-1H-benzo[d]imidazole-6-carboxylic acid] gave a pEC50 of 9.77.

`O=C(O)c1ccc2nc(Cc3cc(F)c(-c4cccc(OCc5ncc(-c6cnn(C(F)F)c6)s5)n4)cc3F)n(C[C@@H]3CCO3)c2c1` [Example 84, (S)-2-(4-(6-((5-(1-(difluoromethyl)-1H-pyrazol-4-yl)thiazol-2-yl)methoxy)pyridin-2-yl)-2,5-difluorobenzyl)-1-(oxetan-2-ylmethyl)-1H-benzo[d]imidazole-6-carboxylic acid] had a negative logarithm of the EC50 (pEC50) of 10.15.

`COCCn1c(Cc2cc(F)c(-c3cccc(OCc4ccc(C#CC5CN(C(C)=O)C5)cc4F)n3)cc2F)nc2ccc(C(=O)O)cc21` [Example 251, 2-[[4-[6-[[4-[2-(1-acetylazetidin-3-yl)ethynyl]-2-fluoro-phenyl]methoxy]-2-pyridyl]-2,5-difluoro-phenyl]methyl]-3-(2-methoxyethyl)benzimidazole-5-carboxylic acid]: the pEC50 was 9.05.

Regarding `CCOc1nnc(COc2nc(-c3ccc(Cc4nc5ccc(C(=O)O)cc5n4[C@@H]4COCC4(C)C)c(F)c3)ccc2F)s1` [Example 397, (S)-1-(4,4-dimethyltetrahydrofuran-3-yl)-2-(4-(6-((5-ethoxy-1,3,4-thiadiazol-2-yl)methoxy)-5-fluoropyridin-2-yl)-2-fluorobenzyl)-1H-benzo[d]imidazole-6-carboxylic acid], the pEC50 was 9.30.

With `O=C(O)c1ccc2nc(Cc3cc(F)c(-c4cccc(OCc5nnc(C6CC(F)(F)C6)s5)n4)cc3F)n(C[C@@H]3CCO3)c2c1` [Example 385, (S)-2-(4-(6-((5-(3,3-difluorocyclobutyl)-1,3,4-thiadiazol-2-yl)methoxy)pyridin-2-yl)-2,5-difluorobenzyl)-1-(oxetan-2-ylmethyl)-1H-benzo[d]imidazole-6-carboxylic acid], the pEC50 is 9.96.

Compound `Cn1cc(-c2cnc(COc3cccc(-c4cc(F)c(Cc5nc6c(F)cc(C(=O)O)cc6n5C[C@@H]5CCO5)cc4F)n3)s2)cn1` [Example 87, (S)-2-(2,5-difluoro-4-(6-((5-(1-methyl-1H-pyrazol-4-yl)thiazol-2-yl)methoxy)pyridin-2-yl)benzyl)-4-fluoro-1-(oxetan-2-ylmethyl)-1H-benzo[d]imidazole-6-carboxylic acid] had a pEC50 of 10.10.

Take `Cc1ncc(C#Cc2ccc(COc3cccc(-c4cc(F)c(Cc5nc6ccc(C(=O)O)cc6n5C[C@@H]5CCO5)cc4F)n3)cc2)cn1` [Example 305, (S)-2-(2,5-difluoro-4-(6-((4-((2-methylpyrimidin-5-yl)ethynyl)benzyl)oxy)pyridin-2-yl)benzyl)-1-(oxetan-2-ylmethyl)-1H-benzo[d]imidazole-6-carboxylic acid]: the negative logarithm of the EC50 (pEC50) is 9.52.
